{"source": "ChEMBL document CHEMBL1201862", "about": "“PubChem BioAssay data set” (2004)", "assay_in_all_cases": "NCI-60 cell line screen, 48 h", "key": {"[1]": {"tested_on": "COLO 205"}, "[2]": {"tested_on": "LOX IMVI"}, "[3]": {"tested_on": "SK-MEL-2"}, "[4]": {"tested_on": "SF-295"}, "[5]": {"tested_on": "SW-620"}, "[6]": {"tested_on": "SK-OV-3"}, "[7]": {"tested_on": "786-0"}, "[8]": {"tested_on": "UACC-257"}, "[9]": {"tested_on": "A549"}, "[10]": {"tested_on": "SNB-19"}, "[11]": {"tested_on": "OVCAR-5"}, "[12]": {"tested_on": "TK-10"}, "[13]": {"tested_on": "SF-539"}, "[14]": {"tested_on": "MOLT-4"}, "[15]": {"tested_on": "MDA-MB-231"}, "[16]": {"tested_on": "EKVX"}, "[17]": {"tested_on": "PC-3"}, "[18]": {"tested_on": "HOP-92"}, "[19]": {"tested_on": "SN12C"}, "[20]": {"tested_on": "MDA-MB-435"}, "[21]": {"tested_on": "RXF 393"}, "[22]": {"tested_on": "U-251"}, "[23]": {"tested_on": "SK-MEL-5"}, "[24]": {"tested_on": "SR"}, "[25]": {"tested_on": "IGROV-1"}, "[26]": {"tested_on": "KM12"}, "[27]": {"tested_on": "HCT-15"}, "[28]": {"tested_on": "A498"}, "[29]": {"tested_on": "MDA-N"}, "[30]": {"tested_on": "UACC-62"}, "[31]": {"tested_on": "MCF7"}, "[32]": {"tested_on": "HCT-116"}, "[33]": {"tested_on": "OVCAR-3"}, "[34]": {"tested_on": "HT-29"}, "[35]": {"tested_on": "NCI/ADR-RES"}, "[36]": {"tested_on": "NCI-H226"}, "[37]": {"tested_on": "CAKI-1"}, "[38]": {"tested_on": "UO-31"}, "[39]": {"tested_on": "DU-145"}, "[40]": {"tested_on": "OVCAR-8"}, "[41]": {"tested_on": "RPMI-8226"}, "[42]": {"tested_on": "M14"}, "[43]": {"tested_on": "K562"}, "[44]": {"tested_on": "HOP-62"}, "[45]": {"tested_on": "SK-MEL-28"}, "[46]": {"tested_on": "NCI-H23"}, "[47]": {"tested_on": "OVCAR-4"}, "[48]": {"tested_on": "ACHN"}, "[49]": {"tested_on": "T47D"}, "[50]": {"tested_on": "BT-549"}, "[51]": {"tested_on": "HL-60"}, "[52]": {"tested_on": "NCI-H460"}, "[53]": {"tested_on": "HCC 2998"}, "[54]": {"tested_on": "CCRF-CEM"}, "[55]": {"tested_on": "Hs-578T"}, "[56]": {"tested_on": "SF-268"}, "[57]": {"tested_on": "SNB-75"}}, "note": "Several values for one entry are separate records, joined by “and”; a condition that tells them apart may be missing. Equal values may be shown once.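 The compound was tested at five concentrations on cells cultured in 96-well plates, with a 48-hour exposure period. The concentration for 50% growth inhibition is given as GI50.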 Activity calls are given as the source filed them. Rule as the data show it: active = GI50 up to about 1.1 µM and inactive = higher."}
{"smiles": "O=C(O)c1ccc([N+](=O)[O-])c(P(=O)(O)O)c1", "values": [{"measurement": "GI50", "setting": "[1]", "result": "> 100 µM (inactive)"}, {"measurement": "GI50", "setting": "[2]", "result": "> 100 µM (inactive)"}, {"measurement": "GI50", "setting": "[3]", "result": "> 100 µM (inactive)"}, {"measurement": "GI50", "setting": "[4]", "result": "> 100 µM (inactive)"}, {"measurement": "GI50", "setting": "[5]", "result": "> 100 µM (inactive)"}, {"measurement": "GI50", "setting": "[6]", "result": "> 100 µM (inactive)"}, {"measurement": "GI50", "setting": "[7]", "result": "> 100 µM (inactive)"}, {"measurement": "GI50", "setting": "[8]", "result": "> 100 µM (inactive)"}, {"measurement": "GI50", "setting": "[9]", "result": "> 100 µM (inactive)"}, {"measurement": "GI50", "setting": "[10]", "result": "> 100 µM (inactive)"}, {"measurement": "GI50", "setting": "[11]", "result": "> 100 µM (inactive)"}, {"measurement": "GI50", "setting": "[12]", "result": "> 100 µM (inactive)"}, {"measurement": "GI50", "setting": "[13]", "result": "> 100 µM (inactive)"}, {"measurement": "GI50", "setting": "[14]", "result": "> 100 µM (inactive)"}, {"measurement": "GI50", "setting": "[15]", "result": "> 100 µM (inactive)"}, {"measurement": "GI50", "setting": "[16]", "result": "> 100 µM (inactive)"}, {"measurement": "GI50", "setting": "[17]", "result": "> 100 µM (inactive)"}, {"measurement": "GI50", "setting": "[18]", "result": "> 100 µM (inactive)"}, {"measurement": "GI50", "setting": "[19]", "result": "> 100 µM (inactive)"}, {"measurement": "GI50", "setting": "[20]", "result": "> 100 µM (inactive)"}, {"measurement": "GI50", "setting": "[21]", "result": "> 100 µM (inactive)"}, {"measurement": "GI50", "setting": "[22]", "result": "> 100 µM (inactive)"}, {"measurement": "GI50", "setting": "[23]", "result": "> 100 µM (inactive)"}, {"measurement": "GI50", "setting": "[24]", "result": "> 100 µM (inactive)"}, {"measurement": "GI50", "setting": "[25]", "result": "> 100 µM (inactive)"}, {"measurement": "GI50", "setting": "[26]", "result": "> 100 µM (inactive)"}, {"measurement": "GI50", "setting": "[27]", "result": "> 100", "unit": "µM"}, {"measurement": "GI50", "setting": "[28]", "result": "> 100 µM (inactive)"}, {"measurement": "GI50", "setting": "[29]", "result": "> 100 µM (inactive)"}, {"measurement": "GI50", "setting": "[30]", "result": "> 100 µM (inactive)"}, {"measurement": "GI50", "setting": "[31]", "result": "> 100 µM (inactive)"}, {"measurement": "GI50", "setting": "[32]", "result": "> 100 µM (inactive)"}, {"measurement": "GI50", "setting": "[33]", "result": "> 100 µM (inactive)"}, {"measurement": "GI50", "setting": "[34]", "result": "> 100 µM (inactive)"}, {"measurement": "GI50", "setting": "[35]", "result": "> 100 µM (inactive)"}, {"measurement": "GI50", "setting": "[36]", "result": "> 100 µM (inactive)"}, {"measurement": "GI50", "setting": "[37]", "result": "> 100 µM (inactive)"}, {"measurement": "GI50", "setting": "[38]", "result": "> 100 µM (inactive)"}, {"measurement": "GI50", "setting": "[39]", "result": "> 100 µM (inactive)"}, {"measurement": "GI50", "setting": "[40]", "result": "> 100 µM (inactive)"}, {"measurement": "GI50", "setting": "[41]", "result": "> 100 µM (inactive)"}, {"measurement": "GI50", "setting": "[42]", "result": "> 100 µM (inactive)"}, {"measurement": "GI50", "setting": "[43]", "result": "> 100 µM (inactive)"}, {"measurement": "GI50", "setting": "[44]", "result": "> 100 µM (inactive)"}, {"measurement": "GI50", "setting": "[45]", "result": "> 100 µM (inactive)"}, {"measurement": "GI50", "setting": "[46]", "result": "> 100 µM (inactive)"}, {"measurement": "GI50", "setting": "[47]", "result": "> 100 µM (inactive)"}, {"measurement": "GI50", "setting": "[48]", "result": "> 100 µM (inactive)"}, {"measurement": "GI50", "setting": "[49]", "result": "> 100 µM (inactive)"}, {"measurement": "GI50", "setting": "[50]", "result": "> 100 µM (inactive)"}, {"measurement": "GI50", "setting": "[51]", "result": "> 100 µM (inactive)"}, {"measurement": "GI50", "setting": "[52]", "result": "> 100 µM (inactive)"}]}
{"smiles": "COc1ccc(-c2c(C#N)c(O)n(C3OC(COC(C)=O)C(OC(C)=O)C(OC(C)=O)C3OC(C)=O)c(=S)c2C#N)cc1", "note": "(configuration not stated)", "values": [{"measurement": "GI50", "setting": "[2]", "result": "93.1 µM (inactive) and 51.5 µM (inactive)"}, {"measurement": "GI50", "setting": "[5]", "result": "> 100 µM (inactive)"}, {"measurement": "GI50", "setting": "[6]", "result": "33.9 µM (inactive) and 28.6 µM (inactive)"}, {"measurement": "GI50", "setting": "[53]", "result": "26.5 µM (inactive) and 25.1 µM (inactive)"}, {"measurement": "GI50", "setting": "[7]", "result": "31.7 µM (inactive) and 34 µM (inactive)"}, {"measurement": "GI50", "setting": "[9]", "result": "> 100 µM (inactive)"}, {"measurement": "GI50", "setting": "[54]", "result": "> 100 µM (inactive) and 67.8 µM (inactive)"}, {"measurement": "GI50", "setting": "[11]", "result": "> 100 µM (inactive)"}, {"measurement": "GI50", "setting": "[12]", "result": "31.6 µM (inactive) and 36.8 µM (inactive)"}, {"measurement": "GI50", "setting": "[13]", "result": "55.2 µM (inactive) and 36.1 µM (inactive)"}, {"measurement": "GI50", "setting": "[16]", "result": "25.9 µM (inactive) and 37.3 µM (inactive)"}, {"measurement": "GI50", "setting": "[17]", "result": "44.3 µM (inactive) and 66.5 µM (inactive)"}, {"measurement": "GI50", "setting": "[18]", "result": "19 µM (inactive) and 17.8 µM (inactive)"}, {"measurement": "GI50", "setting": "[55]", "result": "30.7 µM (inactive) and 32.1 µM (inactive)"}, {"measurement": "GI50", "setting": "[19]", "result": "94.8 µM (inactive) and 67 µM (inactive)"}, {"measurement": "GI50", "setting": "[21]", "result": "32.1 µM (inactive) and 26 µM (inactive)"}, {"measurement": "GI50", "setting": "[26]", "result": "65.9 µM (inactive)"}, {"measurement": "GI50", "setting": "[27]", "result": "> 100", "unit": "µM"}, {"measurement": "GI50", "setting": "[28]", "result": "30.3 µM (inactive) and 32.1 µM (inactive)"}, {"measurement": "GI50", "setting": "[30]", "result": "26 µM (inactive) and 25.7 µM (inactive)"}, {"measurement": "GI50", "setting": "[31]", "result": "> 100 µM (inactive)"}, {"measurement": "GI50", "setting": "[32]", "result": "64 µM (inactive) and 67.3 µM (inactive)"}, {"measurement": "GI50", "setting": "[34]", "result": "> 100 µM (inactive)"}, {"measurement": "GI50", "setting": "[35]", "result": "> 100 µM (inactive)"}, {"measurement": "GI50", "setting": "[36]", "result": "> 100 µM (inactive) and 72.8 µM (inactive)"}, {"measurement": "GI50", "setting": "[56]", "result": "25.1 µM (inactive) and 27.9 µM (inactive)"}, {"measurement": "GI50", "setting": "[37]", "result": "31.4 µM (inactive) and 19.1 µM (inactive)"}, {"measurement": "GI50", "setting": "[38]", "result": "33.4 µM (inactive) and 26.1 µM (inactive)"}, {"measurement": "GI50", "setting": "[39]", "result": "84.5 µM (inactive)"}, {"measurement": "GI50", "setting": "[40]", "result": "28.4 µM (inactive) and 36.6 µM (inactive)"}, {"measurement": "GI50", "setting": "[57]", "result": "26.5 µM (inactive) and 18.9 µM (inactive)"}, {"measurement": "GI50", "setting": "[42]", "result": "> 100 µM (inactive)"}, {"measurement": "GI50", "setting": "[44]", "result": "31.6 µM (inactive) and 27 µM (inactive)"}, {"measurement": "GI50", "setting": "[46]", "result": "97.5 µM (inactive) and 79.4 µM (inactive)"}, {"measurement": "GI50", "setting": "[47]", "result": "29.1 µM (inactive) and 43.7 µM (inactive)"}, {"measurement": "GI50", "setting": "[48]", "result": "48.6 µM (inactive) and 54.8 µM (inactive)"}, {"measurement": "GI50", "setting": "[49]", "result": "21.5 µM (inactive) and 30.3 µM (inactive)"}, {"measurement": "GI50", "setting": "[50]", "result": "32.7 µM (inactive) and 24.8 µM (inactive)"}, {"measurement": "GI50", "setting": "[51]", "result": "22.2 µM (inactive) and 24.5 µM (inactive)"}, {"measurement": "GI50", "setting": "[52]", "result": "68.7 µM (inactive) and 37.6 µM (inactive)"}]}
